{"source": "patent US6395740B1", "about": "“Calcitonin mimetics” (ZymoGenetics, Inc., priority 1997, dated 2002)", "key": {"[1]": {"molecular_target": "T1, human calcitonin receptor (Homo sapiens, UniProt P30988)", "T1 construct": "expressed in transfected cells; host or cells: BHK (baby hamster kidney) cells, line Hollex-2 (Hollex 1 in the general description)", "T1 sequence (P30988 25-474)": "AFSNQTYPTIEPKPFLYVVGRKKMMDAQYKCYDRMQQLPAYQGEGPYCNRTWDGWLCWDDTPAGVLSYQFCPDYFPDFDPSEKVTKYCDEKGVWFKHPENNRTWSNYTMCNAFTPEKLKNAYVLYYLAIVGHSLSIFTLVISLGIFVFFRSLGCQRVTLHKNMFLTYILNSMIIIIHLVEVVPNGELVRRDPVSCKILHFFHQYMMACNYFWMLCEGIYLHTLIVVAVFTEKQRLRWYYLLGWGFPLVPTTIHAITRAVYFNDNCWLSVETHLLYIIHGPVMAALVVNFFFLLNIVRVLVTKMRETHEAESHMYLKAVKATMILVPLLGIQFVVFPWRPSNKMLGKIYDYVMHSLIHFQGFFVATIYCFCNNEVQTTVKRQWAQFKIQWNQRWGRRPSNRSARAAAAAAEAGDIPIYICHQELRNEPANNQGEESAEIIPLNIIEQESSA", "test": "CRE-luciferase assay for calcitonin mimetic activity", "format": "cell-based", "from_the_text": "An alternative assay system (described in WO96/31536 which is incorporated herein in its entirety) involves selection of substances that are able to induce expression of a cyclic AMP response element (CRE)-luciferase reporter gene, as a consequence of elevated cAMP levels, in cells expressing a calcitonin receptor, but not in cells lacking calcitonin receptor expression. Such cells could include, for example, Boris/KS10-3 (expressing hamster calcitonin receptor and a CRE-luciferase reporter gene in baby hamster kidney cells (BHK 570 cells)) or Hollex 1 (expressing human calcitonin receptor and a CRE-luciferase reporter gene in BHK cells, as described in WO96/31536) or KZ10-20-48/pLJ6-4-25, which expresses the human glucagon receptor and a CRE-luciferase reporter gene in BHK cells. The human glucagon receptor is another member of the G-protein-coupled receptor family that transduces signal through adenylate cyclase-mediated elevation of cAMP.\nThis CRE-luciferase assay measures the end result of a multi-step signal transduction pathway triggered when a calcitonin mimetic stimulates the G-coupled calcitonin receptor. The complexity of this pathway provides multiple mechanisms for induction of luciferase transcription at points that are downstream of the calcitonin receptor, and therefore may not be calcitonin receptor-specific (e.g., forskolin's direct activation of adenylate cyclase). Any response triggered by non-specific inducers is eliminated by counter screening using the calcitonin receptor-negative cell lines described above.\nReceptor-positive and -negative cell lines were maintained by serial passage in growth medium (DMEM supplemented with 10% heat-inactivated fetal calf serum (HI-FCS), 2 mM L-glutamine, 1 mM sodium pyruvate, 250 nM MTX, and 1 mg/mL G418). On the day prior to assay, cells were trypsinized, adjusted to 2×10^5 cells/mL in growth medium, plated in opaque white Dynatech Microlite microtiter tissue culture plates at 100 μL/well (2×10^4 cells), and grown overnight to confluence (37° C., 5% CO2 atmosphere)\nTest substances were prepared in DMSO at 100 times the final desired assay concentration. Induction was initiated by adding 100 μL/well test substance diluted 1:100 or 1:1000 (only first round screening extracts were diluted 1:100) in assay medium (DMEM supplemented with 10% HI-FCS, 2 mM L-glutamine, 1 mM sodium pyruvate and 20 mM Hepes, pH 7.25). Controls were included on each plate: untreated wells (basal), […] forskolin, and 100 nM human calcitonin. For test substances prepared in DMSO, an equal concentration of DMSO was included in control wells (not to exceed a final assay concentration of 2% DMSO, with a preferred maximum of 1%). Plates were incubated for 3 to 8 hours (4 hours preferred) at 37° C. in an atmosphere of 5% CO2.\nFollowing induction, luciferase activity was measured using a Promega luciferase assay kit (E1500) according to the assay kit protocol. Briefly, assay medium was removed and cells were washed once with phosphate buffered saline (PBS). After the wash, 25 μL of lysis buffer was added to each well, and the plates were incubated for 15 minutes at room temperature. Fifty microliters of Luciferase Assay Substrate (Promega, Corp.) was added to each well and the plates were transferred to a Labsystems Lumiscan microtiter luminometer. The amount of luminescence (relative light units, RLU) was determined by “Fastscan” following a 0.1 second/well integration of signal. Basal (uninduced) luciferase signal was subtracted from all measurements, and the luciferase signal induced by test samples was expressed as a percentage of the signal in the calcitonin and forskolin controls. […]"}, "[2]": {"tested_on": "PTH-induced bone resorption in mouse calvariae", "test": "Calvarial assay: inhibition of PTH-induced bone resorption (calcium release)", "format": "cell-based", "conditions": "1 nM PTH 1-34, 72 hours, read-out: Release of PTH Induced Ca++ IC50", "protocol": "Calvaria from 4-day old neonatal CD-1 mice (pregnant mice received from Charles River Laboratories, Wilmington, Mass.) were trimmed with fine-tipped scissors to leave the parietal regions, including the sagittal suture. These trimmed bones were placed singly per well into 6-well cell culture cluster plates (Costar, Pleasanton, Calif.) with 1 mL/well of growth medium (DMEM, BioWhittaker, Walkersville, Md.) with 4.5 g/L glucose, 0.29 mg/mL L-glutamine, 1 mM sodium pyruvate, 15% heat-inactivated horse serum, and antibiotics (penicillin-G 50 μg/mL, streptomycin 50 μg/mL, and neomycin 100 μg/mL), and rocked gently (RedRocker™, model PR50-115V, Hoefer, San Francisco, Calif.) at 37° C. in a 5% CO2 humidified incubator for 24 hours preincubation.\nFollowing preincubation, medium was removed and replaced with 1.5 mL/well of growth medium containing 1 nM parathyroid hormone (PTH) 1-34 (Sigma) to stimulate bone resorption. For evaluation of the ability of calcitonin mimetics to inhibit PTH induced bone resorption, mimetic compounds in DMSO were added to the growth medium at concentrations ranging from 1-400 μg/mL (final assay concentration of DMSO less than or equal to […]). In each exierimerec human calcitonin (0.02-20 nM, 0.2-2 nM preferred) was added to PTH treated bones as a positive control. […] All control wells contained a final assay concentration of DMSO equal to that present in calcitonin mimetic treated wells.\nFive bones were included in each sample group. Bones were incubated for 72 hours following PTH addition to allow resorption of bone to occur. Observations were made of the general appearance, healthiness and number of cells that migrate from the calvaria during the incubation as a possible indication of possible toxicity. Calvaria to be examined histologically were transferred to glass scintillation vials containing 10 mL of 10% neutral buffered formalin. The medium was removed from the wells, and total calcium measurements were made using a Nova 7/7+7 Electrolyte Analyzer (Nova Biomedical, Waltham, Mass.) according to the manufacturer's specifications. Induction of bone resorption by PTH is seen as an increase in the concentration of calcium in the growth medium due to degradation of the bone matrix."}, "[3]": {"conditions": "rats, evaluated by pQCT or histomorphometry; cited from earlier work"}}, "note": "pEC50: −log10 of the molar value.", "data": [{"compound": "COc1ccc(CN2CCN(Cc3cc(I)c(O)c(OC)c3)CC2)cc1C", "note": "[Compound 850-0293]", "values": [{"measurement": "pEC50", "setting": "[1]", "value": "3.98 to 4.29"}, {"measurement": "IC50", "setting": "[2]", "value": "25 to 50", "unit": "µg/mL"}]}, {"compound": "COc1cc(CN2CCN(C(=O)Nc3cccc(C(F)(F)F)c3)CC2)cc(O)c1OC", "note": "[Compound 50-2013]", "values": [{"measurement": "pEC50", "setting": "[1]", "value": 4.36}, {"measurement": "IC50", "setting": "[2]", "value": 15, "unit": "µg/mL"}]}, {"compound": "COc1cc(CN2CCN(Cc3ccc(OC)c(OC)c3OC)CC2)cc(I)c1O", "note": "[Compound 850-0221]", "values": [{"measurement": "pEC50", "setting": "[1]", "value": 3.54}]}, {"compound": "COc1cc(CN2CCN(Cc3cc(Br)cc(Br)c3O)CC2)cc(OC)c1OC", "note": "[Compound 850-1085]", "values": [{"measurement": "pEC50", "setting": "[1]", "value": 4.17}, {"measurement": "IC50", "setting": "[2]", "value": 20, "unit": "µg/mL"}]}, {"compound": "COc1cc(CN2CCN(Cc3cc(Br)ccc3O)CC2)cc(Br)c1O", "note": "[Compound 850-2346]", "values": [{"measurement": "pEC50", "setting": "[1]", "value": 3.69}, {"measurement": "IC50", "setting": "[2]", "value": 25, "unit": "µg/mL"}]}, {"compound": "calcitonin", "values": [{"measurement": "bone loss associated with combined ovariectomy and immobilization", "setting": "[3]", "value": "very effective at reducing bone loss"}]}, {"compound": "COc1cc(CN2CCN(C(=O)Nc3cccc(C(F)(F)F)c3)CC2)cc(OC)c1OC", "note": "[Compound 850-0277]", "values": [{"measurement": "IC50", "setting": "[2]", "value": 50, "unit": "µg/mL"}, {"measurement": "melting point", "value": "79 to 82", "unit": "°C"}]}]}
